According to ChEMBL document CHEMBL3430912, “GSK Tres Cantos Anti-Kinetoplastid Screening (TCAKS) Data”:

Key:
Trypanosoma cruzi [1] = test: GSK_TCAKS: pIC50 Trypanosoma cruzi viability assay using beta-GAL activity. This assay was run at single shot at 5uM compound concentration per well. The biological reagents consisted of NIH-3T3 host cells and trypomastigotes parasitic cells; both cell types were set to a 3.3 * 10^5 cells/mL dilution in assay DMEM by means of a CASY cell counter device using a 60um capillary. 6 uL of the mixture were dispensed per well (about 1 * 10^3 host-cells and 1 * 10^3 parasites) with a Multidrop Combi dispenser. […] In all wells, the percentage of DMSO never exceeded 0.5%. Plates incubated for four days at 37C, 5% CO2. The substrate used for the assay fluorescence intensity (FLINT) readout was resorufin-beta-D-galactopiranoside (Sigma-Aldrich) at 5uM per well. It was diluted in PBS supplemented with the soft detergent Igepal (Fluka).; assay type: functional, organism-based, Mus musculus; settings: Tulahuen, NIH3T3
Trypanosoma cruzi [2] = test: (§1) GSK_TCAKS: pIC50 Trypanosoma cruzi Imaging: Infected Cells. […] Cells were then washed once with PBS before infection. T. cruzi trypomastigotes, collected at days 5 to 8 after infection from LLC-MK2 parasite infected cultures, were allowed to swim out for 4h at 37C from a centrifuged pellet (2,500 rpm/10 min/room temperature). Trypomastigotes were then collected and counted in a CASY Cell Counter. Trypomastigotes, in supplemented DMEM, were added to H9c2 cultures in a multiplicity of infection of 1 and incubated for 18 h. Cells were washed once with PBS before incubation of the infected H9c2 monolayer with trypsin (Life-Technologies) to detach cells from the flask. Cells were counted in a CASY Cell Counter using a 150 um capillary and their density set at 5 * 10^4 cells per mL in supplemented assay DMEM. Infected H9c2 were dispensed into 384-well poly-lysine coated assay plates at 50uL per well using a Multidrop Combi dispenser. After seeding them, the plates were incubated at 37C, 5% CO2 for 72h. Cultures were then fixed and stained by addition of 50 uL of a solution containing 8% formaldehyde and 4 uM DRAQ5 DNA dye (BioStatus, UK) per well. […] Five images were collected per well for reliable statistical analysis. Automated image analysis was performed with a script developed on Acapella High Content Imaging and Analysis Software (PerkinElmer). Output: percentage of infected cells per well as a second infection marker.; assay type: functional, organism-based, Rattus norvegicus; settings: H9c2, 4 h
Trypanosoma cruzi [3] = test: GSK_TCAKS: pIC50 Trypanosoma cruzi Imaging: Amastigotes/Cell. […] Cells were then washed once with PBS before infection. T. cruzi trypomastigotes, collected at days 5 to 8 after infection from LLC-MK2 parasite infected cultures, were allowed to swim out for 4h at 37C from a centrifuged pellet (2,500 rpm/10 min/room temperature). Trypomastigotes were then collected and counted in a CASY Cell Counter. Trypomastigotes, in supplemented DMEM, were added to H9c2 cultures in a multiplicity of infection of 1 and incubated for 18 h. Cells were washed once with PBS before incubation of the infected H9c2 monolayer with trypsin (Life-Technologies) to detach cells from the flask. Cells were counted in a CASY Cell Counter using a 150 um capillary and their density set at 5 * 10^4 cells per mL in supplemented assay DMEM. Infected H9c2 were dispensed into 384-well poly-lysine coated assay plates at 50uL per well using a Multidrop Combi dispenser. After seeding them, the plates were incubated at 37C, 5% CO2 for 72h. Cultures were then fixed and stained by addition of 50 uL of a solution containing 8% formaldehyde and 4 uM DRAQ5 DNA dye (BioStatus, UK) per well. […] Five images were collected per well for reliable statistical analysis. Automated image analysis was performed with a script developed on Acapella High Content Imaging and Analysis Software (PerkinElmer). Output: number of amastigotes per cell as infection level measurement.; assay type: functional, organism-based, Rattus norvegicus; settings: H9c2, 4 h
Trypanosoma cruzi [4] = test: as §1, with “H2C9” for “Trypanosoma cruzi”, “H9c2 Host Cardiomyocytes.” for “Infected Cells.”, “Number” for “percentage”, “H9c2 Host Cardiomyocytes nuclei to determine drug-related cytotoxicity.” for “infected cells per well as a second infection marker.”; assay type: functional, organism-based, Rattus norvegicus; settings: H9c2, 4 h
Leishmania donovani [5] = test: GSK_TCAKS: pIC50 Leishmania donovani viability assay using fluorescence intensity. Assay plates (1536-well) were prepared by adding 30nL per well of compound. For single shot assay, the final compound concentration was 5uM. […] Briefly, eGFP LdBOB axenic amastigotes were harvested, fixed and counted in a CASY cell counter (Roche-Applied Science). A final concentration of 1.5 * 10^5 cells per well were prepared in amastigote media containing 500 U/mL penicillin/streptomycin (Invitrogen) and 6uL was dispensed to each experimental well using a Multidrop Combi dispenser (Thermo Scientific). 6uL of assay media was dispensed to control columns used as reference for 100% compound response. Following incubation for 72 h at 37C, 5% CO2, 2 uL of resazurin was added to each well at a final concentration of 0.5 mM in phosphate buffered saline (PBS) with IGEPAL (Sigma-Aldrich), 0.05% (v/v).; assay type: functional, organism-based
Leishmania donovani [6] = test: (§2) GSK_TCAKS: pIC50 Leishmania donovani Imaging: Infected Macrophages. Assay plates (384-well) were prepared by adding 250nL of compound to each well. For single shot assay, the final compound concentration was 5 uM. […] Automated image analysis was performed with a script developed on Acapella High Content Imaging and Analysis Software (PerkinElmer). Output: Percent of infected macrophage cells were reported for each well.; assay type: functional, organism-based, Homo sapiens; settings: THP-1
Leishmania donovani [7] = test: as §2, with “Amastigotes/Macrophages.” for “Infected Macrophages.”, “Average number” for “Percent”, “amastigotes per” for “infected”, “cell” for “cells”; assay type: functional, organism-based, Homo sapiens; settings: THP-1
Leishmania donovani [8] = test: as §2, with “THP-1 Host” for “Infected”, “THP-1 cell count” for “Percent of infected macrophage cells”; assay type: functional, organism-based, Homo sapiens
[9] = system: Trypanosoma brucei brucei; test: GSK_TCAKS: pIC50 Trypanosoma brucei viability assay using fluorescence intensity. Assay plates (1536-well) were prepared by dispensing 25nL of compound solution per well using an Echo acoustic dispenser (Labcyte).; assay type: functional, organism-based; settings: Lister 427, 2 h
[10] = system: Trypanosoma brucei brucei; test: GSK_TCAKS: pIC50 Trypanosoma brucei viability assay using luminiscence. Assay plates (1536-well) were prepared. T. brucei cultures were harvested and counted in a CASY cell counter. A parasite suspension was prepared at a final concentration of 5 * 10^4 cells/mL in complete HMI9 medium and 6uL was dispensed to all wells containing compounds using a Multidrop Combi dispenser. 6uL of HMI9 media with 0.4% DMSO were dispensed to control columns. Plates were incubated for 24 h at 37C, 5% CO2 then tempered for 10 min at room temperature. ATP content was quantified by adding 4 uL of CellTiter-Glo Reagent (Promega) according to the manufacturer's instructions. Luminescence was measured using a ViewLux.; assay type: functional, organism-based; settings: Lister 427, CASY
[11] = GSK_TCAKS: pIC50 HepG2 human cell line viability assay using luminiscence. […] Seeding density was checked to ensure that new mono-layers were not more than 50% confluent at the time of harvesting. Cell suspension was added to 500 mL of the same medium at a final density of 1.2 * 10^5 cells/mL. This cell suspension was dispensed (25 uL, 3000 cells per well) into 384-well clear-bottom plates using a Multidrop Combi dispenser. Prior to addition of the cell suspension, the screening compounds (250 nL) were pre-dispensed into the plates with an Echo liquid handler. Plates were incubated for 48 h at 37C, 5% CO2. After incubation, plates equilibrated at room temperature for 30 min before proceeding to develop the luminescent signal. The signal developer, CellTiter-Glo Reagent, was allowed to equilibrate at room temperature for 30 min and added to the plates (25uL per well) using a Multidrop Combi dispenser. Plates were left for 10 min at room temperature for stabilization and then read using a ViewLux.; assay type: toxicity, cell-based
NIH3T3 = test: GSK_TCAKS: pIC50 NIH 3T3 cell line viability assay using luminiscence. Tissue culture surface treated assay plates (1536-well) were used. […] The 100% cells survival control was determined exposing the host-cells to a 0.5% DMSO concentration, whereas the 100% toxicity control was achieved by seeding the cells in presence of Amphotericin B at 50uM. Plates were incubated for four days at 37C, 5% CO2. The assay readout was developed by addition of 5uL of CellTiter-Glo Reagent following the manufacturer's instructions. Luminiscence was measured using a ViewLux.; assay type: functional, cell-based; settings: Mus musculus, NIH3T3, 96 h
[12] = target: Sterol 14-alpha demethylase (Trypanosoma cruzi (strain CL Brener), UniProt Q7Z1V1); test: GSK_TCAKS: pIC50 CYP51 from Trypanosoma cruzi.; assay type: functional
Chain of Sterol 14-alpha demethylase (Q7Z1V1 whole entry): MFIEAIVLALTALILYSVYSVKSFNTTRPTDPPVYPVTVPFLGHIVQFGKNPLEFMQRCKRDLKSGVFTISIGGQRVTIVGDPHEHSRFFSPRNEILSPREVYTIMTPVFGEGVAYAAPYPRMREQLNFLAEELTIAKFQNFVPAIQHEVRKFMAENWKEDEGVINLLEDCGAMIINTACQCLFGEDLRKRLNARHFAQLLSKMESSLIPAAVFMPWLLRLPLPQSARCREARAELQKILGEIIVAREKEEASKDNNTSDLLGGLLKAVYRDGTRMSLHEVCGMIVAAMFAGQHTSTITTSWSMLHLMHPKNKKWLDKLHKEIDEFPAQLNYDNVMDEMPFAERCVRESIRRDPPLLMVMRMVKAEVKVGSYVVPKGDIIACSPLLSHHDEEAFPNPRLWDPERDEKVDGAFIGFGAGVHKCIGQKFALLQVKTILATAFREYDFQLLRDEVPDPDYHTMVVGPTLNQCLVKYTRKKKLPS

| SMILES | IC50 (Trypanosoma cruzi [1]) [µM] | IC50 (Trypanosoma cruzi [2]) [µM] | IC50 (Trypanosoma cruzi [3]) [µM] | IC50 (Trypanosoma cruzi [4]) [µM] | IC50 (Leishmania donovani [5]) [µM] | IC50 (Leishmania donovani [6]) [µM] | IC50 (Leishmania donovani [7]) [µM] | IC50 (Leishmania donovani [8]) [µM] | IC50 [9] [µM] | IC50 [10] [µM] | IC50 at 48 h [11] [µM] | IC50 (NIH3T3) [µM] | IC50 [12] [µM] |
| --- | --- | --- | --- | --- | --- | --- | --- | --- | --- | --- | --- | --- | --- |
| CC(C)c1cc(C(=O)N2CCCC(c3cc4ncccc4[nH]3)C2)on1 (centres undefined) | 2 | 3.16 | 1 | > 50.1 | > 50.1 | > 50.1 | > 50.1 | > 50.1 | > 39.8 | > 39.8 | > 100 | 20 | 50.1 |
| O=C(NCc1ccc(-n2cccc2)cc1)c1nc(Cn2ccc([N+](=O)[O-])n2)no1 | 2.51 | 2.51 | 1.26 | > 50.1 | > 50.1 | > 50.1 | > 50.1 | > 50.1 | > 39.8 | > 39.8 | > 100 | 50.1 | > 100 |
| O=C1CSC(c2cccnc2)N1c1ccc(Cl)cc1Cl (centres undefined) | 0.0708 | 0.251 | 0.158 | > 50.1 | 5.01 | > 50.1 | > 50.1 | > 50.1 | > 39.8 | > 39.8 | > 100 | > 50.1 | 0.158 |
| CCN(CC)S(=O)(=O)c1ccc(C(=O)Nc2cc(C)nn2-c2nc(C)c(C)c(=O)[nH]2)cc1 | 0.631 | 1.58 | 0.316 | > 50.1 | 0.501 | > 50.1 | > 50.1 | 3.16 | 0.316 | 0.316 | > 100 | > 50.1 | > 100 |
| COc1ccc2c(Cl)c(C(=O)N3CCC3)sc2c1Cl | 0.447 | 2.51 | 0.794 | > 50.1 | > 50.1 | > 50.1 | > 50.1 | > 50.1 | 20 | > 39.8 | > 100 | > 50.1 | > 100 |
| COc1cc(-c2nc(N3CCOCC3)sc2-c2ccnc(NC3CCOCC3)n2)ccc1Cl | 0.251 | 0.158 | 0.1 | > 50.1 | > 50.1 | > 50.1 | 0.02 | > 50.1 | 15.8 | > 39.8 | > 100 | > 50.1 | > 100 |
| Cc1nccn1C1CCCN(C(=O)c2cc3c(F)cccc3s2)C1 (centres undefined) | 0.631 | 1 | 0.794 | > 50.1 | 5.01 | > 50.1 | > 50.1 | > 50.1 | > 39.8 | > 39.8 | > 100 | 20 | 50.1 |
| CN(C)c1ncc(-c2cncn2CCOc2ccc(Cl)cc2)cn1 | 0.224 | 0.251 | 0.2 | > 50.1 | > 50.1 | > 50.1 | > 50.1 | > 50.1 | > 39.8 | > 39.8 | > 100 | 39.8 | 0.0501 |
